Laboratory results: patent US20060121083A1 (priority 2003, published 2006)
In brackets after ≈: the same amount, converted by molar mass. Where two headings read alike, the source gives them in different places. Ends that are not written are not given here.

Legend:
[1] = test system: Methicillin-resistant S. aureus ATCC 43300; assay: MIC by microbroth dilution method, MRSA; assay type: cell-based; settings: broth-micro dilution
Method: (§1) Bacterial strains: Methicillin-resistant S. aureus (abbreviated […]) ATCC 43300 was commercially purchased from Oxoid S.p.A., Milan, Italy. Methicillin-resistant S. epidermidis (abbreviated MRSE) is a clinical strain from the Institute of Infectious Diseases and Public Health, University of Ancona, Italy.
(§2) Bacterial strain antibiotic suscepdbilty analysis: The antimicrobial susceptibilities of the bacterial strains were determined by using the microbroth dilution method, according to the procedures outlined by the National Committee for Clinical Laboratory Standards (U.S.A.). The minimal inhibitory concentration (MIC) was taken as the lowest antibiotic concentration at which observable growth was inhibited. Experiments were performed in triplicate.
(§3) Statistical analysis: MIC values are presented as the geometric mean of three separate experiments. […] Significance was accepted when the P value was less than/equal to 0.05.

[2] = test system: Methicillin-resistant S. epidermidis clinical strain; assay: MIC by microbroth dilution method, MRSE; assay type: cell-based; settings: broth-micro dilution
Method: as §1, §2, §3

[3] = test system: RNAIII synthesis; assay: RNAIII synthesis (beta-lactamase reporter, nitrocefin); assay type: cell-based, S. aureus; settings: FIG. 5b; at high peptide concentrations mostly attributable to cell death
Method: (§4) RNAIII synthesis and bacterial growth: Cultures of S. aureus (20 million cells in a volume of 30 microliters) containing an expression construct for expression of the fusion protein maiii::blaZ (described in Gov, Y. et al., 2001. Peptides. 22: 1609-20 were grown for 2.5 hours with 5 microliters peptide solution or control buffer. A 5 microliter sample was taken from the cultures, diluted in saline, and streaked on LB agar plates to quantitate CFUs. The remainder of the cultures were used to determine RNAIII synthesis (beta-lactamase activity). This was performed by adding a substrate of beta-lactamase (nitrocefin), and determining OD 490 nm/OD 650 nm, as previously described (Gov, Y. et al., 2001. Peptides. 22: 1609-20).

[4] = test system: S. aureus cells; assay: Bacterial growth (CFU) of S. aureus culture grown with peptides; assay type: cell-based; settings: in-vitro culture grown 2.5 hours with peptide, FIG. 5a
Method: as §4

[5] = test system: methicillin-resistant S. aureus (MRSA); assay type: in vivo; settings: rats, MRSA challenge
Excerpt: (§5) Animals: Adult male Wistar rats, 250-300 gr (I.N.R.C.A. I.R.R.C.S. animal facility, Ancona) were used, with 15 animals per experimental group.
(§6) Mammalian graft infection model: Rats were anesthetized and their hair of the back was shaved and the skin cleansed with 10 percent povidone-iodine solution. One subcutaneous pocket was made on each side of the median line by a 1.5 cm incision. Aseptically, 1 square centimeter sterile albumin-sealed Dacron™ grafts (Albograft™, Sorin Biomedica Cardio, S.p.A., Saluggia VC, Italy) were implanted into the pockets. Prior to implantation grafts were soaked for 20 minutes in sterile antibiotic solutions. The pockets were closed by means of skin clips and saline solution (1 mL) containing methicillin-resistant S. aureus (MRSA) or S. epidermidis (MRSE) at a concentration of 2×10^7 colony-forming units (CFU)/mL was inoculated onto the graft surface by using a tuberculin syringe to create a subcutaneous fluid-filled pocket. The animals were returned to individual cages and thoroughly examined daily. All grafts were explanted at 7 days following implantation.
(§7) Assessment of the infection: The explanted grafts were placed in sterile tubes, washed in sterile saline solution, placed in tubes containing 10 mL of phosphate-buffered saline solution and sonicated for 5 minutes to remove the adherent bacteria from the grafts (Balaban, N. et al, 2003. Kidney Int. 63: 340-345). Quantitation of viable staphylococci was performed by culturing serial dilutions (0.1 mL) of the bacterial suspensions on blood agar plates at 37 degrees centigrade for 48 hours. The organisms were quantitated by counting the number of colony-forming units (CFUs) per plate. The limit of detection for this method was approximately 10 CFU/mL.
as §3

[6] = test system: methicillin-resistant S. epidermidis (MRSE); assay type: in vivo; settings: rats, MRSE challenge
Excerpt: as §5, §6, §7, §3

[7] = graft presoaked in 10 micrograms/mL peptide, explanted at 7 days
[8] = graft presoaked in 20 micrograms/mL peptide, explanted at 7 days
[9] = graft presoaked in 50 micrograms/mL peptide, explanted at 7 days
[10] = graft pre-soaked with 5 micrograms/mL rifampin alone
[11] = graft pre-soaked with 5 micrograms/mL rifampin alone, 7 days

Compound | MIC [1] [micrograms/mL] | MIC [2] [micrograms/mL] | Inhibition of RNAIII synthesis [3] | Bactericidal activity (CFU counts) [4] | Graft bacterial load (quantitative culture) [5, 7] | Graft bacterial load (quantitative culture) [5, 8] | Graft bacterial load (quantitative culture) [5, 9] | Graft bacterial load (quantitative culture) [6, 7] | Graft bacterial load (quantitative culture) [6, 8] | Graft bacterial load (quantitative culture) [6, 9] | MIC ([1]; Staphylococcus aureus, read-out: MIC) [µg/mL] | MIC ([2]; Staphylococcus epidermidis, read-out: MIC) [µg/mL] | Reduction in bacterial CFU compared to control [5, 10] | Graft bacterial load (quantitative culture) [5, 11] | Reduction in numbers of PFUs compared to control [6, 10] | Graft bacterial load (quantitative culture) [6, 11]
YSPWTNF (YSPWTNF-NH2) [RIP] | > 128 | > 128 | efficiently inhibited RNAIII synthesis | virtually inactive | 4.1×10^4±7.1×10^3 CFU/ml | 5.9×10^3±1.7×10^3 CFU/ml | 8.4×10^1±3.6×10^1 CFU/ml | 6.9×10^3±1.9×10^3 CFU/ml | 8.5×10^2±2.0×10^2 CFU/ml | 3.9×10^1±1.6×10^1 CFU/ml |  |  |  |  |  | 
CO[C@H]1/C=C/O[C@@]2(C)Oc3c(C)c(O)c4c(O)c(c(/C=N/N5CCN(C)CC5)c(O)c4c3C2=O)NC(=O)/C(C)=C\C=C\[C@H](C)[C@H](O)[C@@H](C)[C@@H](O)[C@@H](C)[C@H](OC(C)=O)[C@@H]1C [rifampin] |  |  |  |  |  |  |  |  |  |  | 0.5 (≈ 0.608 µM) | 0.5 (≈ 0.608 µM) | about 50% | 6.7×10^3±9.1×10^2 CFU/mL | about 50% | 8.8×10^2±3.0×10^2 CFU/mL
